The test system of one assay is A549. Description: Antiproliferative activity against human A549 cells incubated for 72 hrs by MTT assay. In kind it is functional, cell-based. To be noted: A549, 72 h.
For another assay, the system named is CFPAC-1. Description: Antiproliferative activity against human CFPAC-1 cells incubated for 72 hrs by MTT assay. In kind it is functional, cell-based. To be noted: CFPAC-1, 72 h. (In general: Tetrazolium assays rely on reduction of a dye to a coloured formazan, in cell work by metabolically active cells.)
For a further assay, the system named is SW-620. Description: Antiproliferative activity against human SW620 cells incubated for 72 hrs by MTT assay. Type of assay: functional, cell-based. To be noted: SW-620, 72 h.
Another assay deals with HFF. Kind of assay: Cytotoxicity against HFF cells assessed as reduction in cell viability incubated for 72 hrs by MTT assay. Type of assay: cell-based. To be noted: Homo sapiens.
Assay [1] concerns HeLa. Kind of assay: cells. To be noted: Homo sapiens, 72 h.
Description: Antiproliferative activity against human HeLa cells incubated for 72 hrs by MTT assay
Assay [2] concerns HepG2. Description: cells. To be noted: Homo sapiens, HepG2, 72 h.
Description: Antiproliferative activity against human HepG2 cells incubated for 72 hrs by MTT assay
Assay [3] deals with HeLa. Description: Upregulation of HIF1 protein level in human HeLa cells at 2 times IC50 incubated for 48 hrs by Western blot analysis. Type of assay: functional, cell-based. (In general: Immunoblotting shows a protein as a band on a membrane.)
Assay [4] relates to HeLa. Kind of assay: Upregulation of HIF1 protein level in human HeLa cells at 2 times IC50 incubated for 72 hrs by Western blot analysis. In kind it is functional, cell-based.
Assay [5] concerns HepG2. Description: Upregulation of HIF1 protein level in human HepG2 cells at 2 times IC50 incubated for 72 hrs by Western blot analysis. Type of assay: functional, cell-based.
For assay [6], the system named is HeLa. Description: Downregulation of MEK1/2 protein level in human HeLa cells at 2 times IC50 incubated for 48 hrs by Western blot analysis. Type of assay: functional, cell-based.
In assay [7] the test system is HepG2. Kind of assay: Downregulation of MEK1/2 protein level in human HepG2 cells at 2 times IC50 incubated for 72 hrs by Western blot analysis. Type of assay: functional, cell-based.
Assay [8] deals with HeLa. Kind of assay: Downregulation of MEK1/2 protein level in human HeLa cells at 2 times IC50 incubated for 72 hrs by Western blot analysis. Type of assay: functional, cell-based.

Among the data in ChEMBL document CHEMBL4312036, “Antiproliferative activity and mode of action analysis of novel amino and amido substituted phenantrene and naphtho[2,1-b]thiophene derivatives” (Eur J Med Chem, 2020) are IC50 and Activity values, retold here.

Calls of active or inactive are those of the source. No cut-off for these calls is given here.

Usually IC50 stands for the concentration that gives 50% inhibition.

As for `N#Cc1cc2ccc(F)cc2c2ccsc12`, the IC50 came out at 49.9 µM with A549; 51 µM with CFPAC-1; 42.4 µM in the assay on SW-620; 16.4 µM in the assay on HFF; 11.6 µM with HeLa [1]; 32.1 µM in the assay with HepG2 [2].
With `CN(C)CCCNC(=O)c1cc2ccccc2c2ccsc12`, the IC50 with A549 came out at 20.2 µM; in the assay on CFPAC-1, 17.5 µM; with SW-620, 17.7 µM; in the assay with HFF, 24 µM; with HeLa [1], 14.4 µM; with HepG2 [2], 23.2 µM.
`N#C/C(=C\c1ccccc1)c1cccs1`: the IC50 was 59 µM with A549; 97.8 µM with CFPAC-1; more than 100 µM in the assay with SW-620; 84.3 µM with HFF; 20 µM with HeLa [1]; 43.4 µM in the assay on HepG2 [2].
Turning to `N#Cc1cc2ccc(F)cc2c2ccccc12`, the IC50 in the assay on A549 turned out to be 9.57 µM; in the assay on CFPAC-1, 13.2 µM; in the assay on SW-620, 7.8 µM; in the assay on HFF it was 3.43 µM; with HeLa [1] it was 8.31 µM; with HepG2 [2] it was 18.3 µM.
For the compound `N#Cc1cc2ccccc2c2ccccc12`, the IC50 with A549 is 72.4 µM; with CFPAC-1, 80 µM; in the assay with SW-620, more than 100 µM; in the assay on HFF, more than 100 µM; in the assay on HeLa [1], 30.3 µM; in the assay with HepG2 [2], 48.8 µM.
Regarding `CN(C)CCCNC(=O)c1ccc2cc(C(=O)NCCCN(C)C)c3sccc3c2c1`, the IC50 with A549 was 5.57 µM; with CFPAC-1 it was 6.59 µM; in the assay with SW-620, 4.4 µM; in the assay with HFF, 5.83 µM; with HeLa [1], 4.21 µM; with HepG2 [2], 16.2 µM.
Turning to `CC(C)CNC(=O)c1cc2ccccc2c2ccccc12`, the IC50 was 64.2 µM in the assay on A549; 68.6 µM with CFPAC-1; 61.3 µM in the assay with SW-620; more than 100 µM in the assay on HFF; 28.4 µM in the assay with HeLa [1]; 93.4 µM in the assay with HepG2 [2].
Regarding `N#Cc1cc2ccc(N3CCCCC3)cc2c2ccsc12`, the IC50 came to 61.3 µM with A549; 25.7 µM in the assay on CFPAC-1; 64.1 µM with SW-620; 62 µM with HFF; 32.2 µM in the assay on HeLa [1]; 62 µM in the assay with HepG2 [2].
In the case of `N#Cc1ccc2cc(C#N)c3sccc3c2c1`, the IC50 with A549 was found to be 5.53 µM; in the assay on CFPAC-1 it was 8.19 µM; in the assay with SW-620 it was 6.04 µM; with HFF, 5.13 µM; with HeLa [1], 0.45 µM; in the assay on HepG2 [2] it was 7.22 µM.
Take `N#C/C(=C\c1ccc(C#N)cc1)c1ccccc1`: the IC50 in the assay on A549 came out at 8.39 µM; with CFPAC-1, 6.7 µM; in the assay with SW-620, 9.18 µM; in the assay on HFF, 6.07 µM; in the assay on HeLa [1], 0.33 µM; in the assay on HepG2 [2], 0.52 µM. Further, the outcome in the assay with HeLa [3], with HeLa [4], with HepG2 [5], with HeLa [6] and in the assay on HepG2 [7] was Active.
Regarding `CC(C)CNc1ccc2cc(C#N)c3ccccc3c2c1`, the IC50 worked out at 31.1 µM in the assay with A549; 35.5 µM with CFPAC-1; 43.4 µM in the assay with SW-620; 52.9 µM in the assay on HFF; 23.6 µM in the assay with HeLa [1]; 33.6 µM in the assay with HepG2 [2].
As to `N#C/C(=C\c1ccc(F)cc1)c1cccs1`, the IC50 came out at 40.8 µM in the assay on A549; 34.2 µM in the assay on CFPAC-1; 36.4 µM with SW-620; 86.9 µM in the assay on HFF; 3.59 µM with HeLa [1]; 5.22 µM in the assay on HepG2 [2].
Regarding `N#C/C(=C\c1ccccc1)c1ccccc1`, the IC50 in the assay on A549 is 64.6 µM; in the assay on CFPAC-1, 88.2 µM; in the assay with SW-620 it was more than 100 µM; in the assay on HFF, 93.7 µM; in the assay with HeLa [1], 48.9 µM; in the assay with HepG2 [2], 81.5 µM.
As for `CC(C)CNC(=O)c1cc2ccccc2c2ccsc12`, the IC50 with A549 is 63.9 µM; with CFPAC-1, 97.5 µM; in the assay on SW-620 it was more than 100 µM; in the assay with HFF, 96.8 µM; in the assay on HeLa [1], 39.6 µM; in the assay on HepG2 [2], 75.4 µM.
As for `N#Cc1cc2ccc(N3CCCCC3)cc2c2ccccc12`, the concentration for half-maximal inhibition (IC50) with A549 was 58.9 µM; with CFPAC-1, more than 100 µM; in the assay on SW-620 it was more than 100 µM; in the assay with HFF, more than 100 µM; in the assay on HeLa [1], 59.4 µM; in the assay with HepG2 [2] it was 81.8 µM.
Regarding `CC(C)CNC(=O)c1ccc2cc(C(=O)NCC(C)C)c3sccc3c2c1`, the IC50 with A549 was 27.7 µM; in the assay with CFPAC-1 it was more than 100 µM; in the assay on SW-620, 0.9 µM; in the assay with HFF it was 0.74 µM; in the assay on HeLa [1], 10.8 µM; in the assay with HepG2 [2], 86.1 µM.
With `N#Cc1cc2ccc(N3CCNCC3)cc2c2ccsc12`, the half-maximal inhibitory concentration (IC50) in the assay on A549 came out at 7.09 µM; with CFPAC-1 it was 3.66 µM; in the assay with SW-620, 2.58 µM; in the assay with HFF, 37.5 µM; in the assay with HeLa [1], 2.38 µM; in the assay on HepG2 [2], 20.9 µM.
`N#Cc1cc2ccc(N3CCNCC3)cc2c2ccccc12`: the IC50 in the assay on A549 amounted to 5.49 µM; in the assay with CFPAC-1, 6.19 µM; in the assay on SW-620 it was 4.62 µM; with HFF it was 23.8 µM; with HeLa [1], 3.33 µM; in the assay on HepG2 [2], 19.4 µM.
`N#Cc1ccc2cc(C#N)c3ccccc3c2c1`: the IC50 amounted to 3.3 µM in the assay with A549; 8.2 µM in the assay with CFPAC-1; 6.8 µM with SW-620; 1.78 µM in the assay on HFF; 0.65 µM in the assay with HeLa [1]; 10.8 µM in the assay on HepG2 [2].
On to `N#C/C(=C\c1ccc(F)cc1)c1ccccc1`, for which the IC50 in the assay with A549 is 45.8 µM; in the assay with CFPAC-1, 46.9 µM; in the assay with SW-620 it was 38.5 µM; in the assay with HFF it was 52.7 µM; in the assay with HeLa [1], 3.44 µM; in the assay with HepG2 [2], 7.73 µM.
Consider `CC(C)CNc1ccc2cc(C#N)c3sccc3c2c1`, for which the IC50 is 31 µM in the assay on A549; 18.6 µM with CFPAC-1; 41.5 µM in the assay on SW-620; 98.4 µM in the assay with HFF; 18.6 µM with HeLa [1]; 47.6 µM with HepG2 [2].
As to `N#Cc1cc2ccccc2c2ccsc12`, the IC50 with A549 stood at 50.4 µM; with CFPAC-1, 55.6 µM; with SW-620 it was 70.3 µM; with HFF, 84.6 µM; in the assay on HeLa [1], 29.9 µM; in the assay with HepG2 [2], 54.3 µM.
For the compound `N#C/C(=C\c1ccc(C#N)cc1)c1cccs1`, the IC50 is 47.7 µM in the assay on A549; 52.4 µM in the assay with CFPAC-1; 61.4 µM with SW-620; more than 100 µM in the assay on HFF; 0.21 µM in the assay on HeLa [1]; 0.3 µM in the assay on HepG2 [2]. The result in the assay on HeLa [3], with HeLa [4], in the assay with HepG2 [5], in the assay on HeLa [8] and in the assay with HepG2 [7] was Active.
